This is an account of results in US20250170224A1, “METHODS AND COMPOSITIONS FOR TREATING MICROGLIAL DYSFUNCTION AND IMPROVING METABOLIC DYSFUNCTION” (Ultimate Medicine AG, priority 2021, published 2025).

The conditions of data set [1]: healthy subjects; ingested lactulose 5 grams, mannitol 1 gram; cited from earlier work.
Another data set deals with gut barrier / microglia. Briefly: Aged SPF mice (18 months old) treated orally every third day for 10 weeks with EA or IAP. As to conditions: for ATP levels in microglia / cellular ROS in microglia (CellROX): compared to vehicle-treated aged mice; for CML accumulation in the brain (LC-MS) / gut permeability (FITC-dextran 4 kDa translocation to the circulation): oral, every 3 days for 10 weeks. The format is in vivo, mouse (C57BL/6). Here is the method:
(§1) Specific pathogen-free (SPF) and germ-free (GF) housed C57BL/6 mice were analyzed at 6-10 weeks of age (young-adult) and 96-104 weeks of age (aged). Mice of the aged group in the nontargeted metabolomics analysis were 17-18 months old. Except for nontargeted metabolomics and microbiota profiling, where only male mice were used, all groups included mice from both sexes. Mice were housed under a 12-hour light/12-hour dark cycle and temperatures of 18-23° C. with 40-60% humidity, with food and water given ad libitum. To avoid cage effects, mice from at least three different cages per experimental group were analyzed. For the treatment, young-adult mice (8 weeks old) were injected intraperitoneally or by oral gavage with CML (0.735 mg kg^−1; Iris Biotech), trimethylamine N-oxide (TMAO) (3.95 mg kg^−1; Sigma-Aldrich), sodium acetate (59 mg kg^−1; Sigma-Aldrich) and sodium propionate (4.61 mg kg^−1; Sigma-Aldrich) daily for 14 days. For modulation of CML in aged animals, 18-month-old SPF housed C57BL/6 mice were treated orally every third day for 10 weeks with vehicle (20% hydroxypropyl-p-cyclodextrin in 1× phosphate-buffered saline (PBS)), 10 mg kg^−1 ellagic acid (EA) or 3,000 U kg^−1 intestinal alkaline phosphatase (IAP). To assess in vivo intestinal permeability, tracer fluorescein isothiocyanate (FITC)-labeled dextran (4 kDa: Sigma-Aldrich) was used. Briefly, mice were deprived of food 4 hours before and both food and water 4 hours after oral gavage using 200 μl of 80 mg ml^−1 FITC-dextran. Blood was collected retro-orbitally after 4 hours and fluorescence intensity was measured on fluorescence plates using an excitation wavelength of 493 nm and an emission wavelength of 518 nm. To assess in vivo intestinal permeability to CML, mice were treated with […] CML (0.36 mM). Blood was collected retro-orbitally immediately before and 4 hours after treatment. CML translocated into the circulation was measured by liquid chromatography-mass spectrometry (LC-MS). All animal experiments were approved by the local administration in Germany (Regierungsprasidium Freiburg) and were performed in accordance with the respective national, federal, and institutional regulations and the guidelines of the Federation of European Laboratory Animal Science Associations.
Cell sorting for RT-qPCR and RNA sequencing (RNA-seq) was performed on a MoFlo Astrios (Beckman Coulter; FIG. 7a). Before surface staining, dead cells were excluded by using the Fixable Viability Dye eFluor 780 (1:1,000 dilution; Thermo Fisher Scientific) followed by incubation with Fc receptor blocking antibody CD16/CD32 (1:200 dilution, clone 2.4G2; BD Bioscience). The following antibodies were used for surface staining: anti-CD45 (1:200 dilution, clone 30-F11; Thermo Fisher Scientific); anti-CD11b (1:200 dilution, clone MI/70; Thermo Fisher Scientific). The following lineage antibodies were used (all at 1:300 dilution): anti-CD3 (clone 17A2; BioLegend); anti-CD19 (clone 6D5; BioLegend); anti-CD45R (clone RA3-6B2; BD Biosciences); Ly6C (clone AL-21; BD Biosciences); Ly6G (clone 1A8; BD Biosciences). To assess microglial cellular reactive oxidative species (ROS), the CellROX DeepRed Reagent ([…]; Thermo Fisher Scientific) was used. To assess mitochondrial activity, Tetramethylrhodamine, Methyl Ester, Perchlorate (50 nM; Thermo Fisher Scientific) and MitoTracker Green FM (20 nM; Thermo Fisher Scientific) were used. Dead cells were excluded by short incubation with DAPI before flow cytometry analysis with the FACSCanto II (BD Biosciences). Data were acquired with the FACSDiva v.6 software (Becton Dickinson). Postacquisition analysis was performed with FlowJo v.10 (FlowJo LLC).
To avoid the cellular stress of fluorescence-activated cell sorting (FACS), microglial cells were isolated using the magnetic-activated cell sorting (MACS) separation system (Miltenyi Biotec; FIG. 7b). […]

The subject of another data set is microglia. The format is in vivo. To be noted: young-adult mice, i.p. once per day for two weeks; for intracellular ROS production / oxidative stress in microglia: CellROX. How it is done: as §1, with “Mice” for “Specific pathogen-free (SPF) and germ-free (GF) housed C57BL/6 mice were analyzed at 6-10 weeks of age (young-adult) and 96-104 weeks of age (aged). Mice”, “For the treatment, young-adult mice (8 weeks old) were injected intraperitoneally or by oral gavage with CML (0.735 mg kg^−1; Iris Biotech), trimethylamine N-oxide (TMAO) (3.95 mg kg^−1; Sigma-Aldrich), sodium acetate (59 mg kg^−1; Sigma-Aldrich) and sodium propionate (4.61 mg kg^−1; Sigma-Aldrich) daily for 14 days.” left out
Mice were lethally anesthetized with ketamine (100 mg kg^−1 body weight) and xylazine (10 mg kg^−1 body weight) followed by perfusion with 1×PBS through the left heart chamber. For histology, brains were kept overnight in 4% paraformaldehyde (PFA). For flow cytometry and magnetic-activated cell sorting (MACS) beads cell sorting, brains were dissected, homogenized and filtered through a […] mesh. […] Myelin was removed from the top layer and the cell pellet was washed once with 1×PBS followed by antibody staining.
Brain specimens from the cortex were first fixed overnight in 3% glutaraldehyde at 4° C., washed with Sorensen buffer, and then transferred to 1% osmium tetroxide for 2 hours at room temperature. Next, samples were dehydrated by a graded series of ethanol (30-100%) followed by 100% propylene oxide, resin/propylene oxide (1:2 (v/v)) and resin/propylene oxide (2:1 (v/v)). Samples were embedded in resin via polymerization for 24 hours at 75° C. Then, 700-nm semithin sections were cut and stained with 2% toluidine blue to define the region of interest for further preparation of 70 nm ultrathin sections using an ultramicrotome (Leica Reichert Ultracut S) after contrasting the sections with uranyl acetate and lead citrate (Leica Reichert Ultrastainer). To assess the mitochondrial phenotype in microglia, images were acquired with a ×7,900 or ×46,000 magnification using a CM100 electron microscope (Philips).
Cell sorting for RT-qPCR and RNA sequencing (RNA-seq) was performed on a MoFlo Astrios (Beckman Coulter; FIG. 7a). Before surface staining, dead cells were excluded by using the Fixable Viability Dye eFluor 780 (1:1,000 dilution; Thermo Fisher Scientific) followed by incubation with Fc receptor blocking antibody CD16/CD32 (1:200 dilution, clone 2.4G2; BD Bioscience). […] To assess microglial cellular reactive oxidative species (ROS), the CellROX DeepRed Reagent ([…]; Thermo Fisher Scientific) was used. To assess mitochondrial activity, Tetramethylrhodamine, Methyl Ester, Perchlorate (50 nM; Thermo Fisher Scientific) and MitoTracker Green FM (20 nM; Thermo Fisher Scientific) were used.

Consider `OC[C@H]1O[C@@H](O[C@@H]2[C@@H](CO)OC(O)(CO)[C@H]2O)[C@H](O)[C@@H](O)[C@H]1O` (mixture of isomers) [lactulose], for which the “normal value of excretion in urine (percentage of ingested amount)” value in data set [1] is “about 0.35%”.
On to `O=c1oc2c(O)c(O)cc3c(=O)oc4c(O)c(O)cc1c4c23` [EA, ellagic acid], for which, in the data set with gut barrier / microglia, the “ATP levels in microglia” value is given as “increased ATP levels”, the “cellular ROS in microglia (CellROX)” value is on record as “significant reduction”, the “CML accumulation in the brain (LC-MS)” value is recorded as “reduced” and the “gut permeability (FITC-dextran 4 kDa translocation to the circulation)” value was “no direct effect”.
Regarding `C[N+](C)(C)[O-]` [TMAO, trimethylamine N-oxide], in the data set with microglia, the “metabolic function (metabolic/mitochondrial activity) of microglia” value is on record as “no effect” and the “intracellular ROS production / oxidative stress in microglia” value is “no effect”.
In the case of `OC[C@@H](O)[C@@H](O)[C@H](O)[C@H](O)CO` [mannitol], the “normal value of excretion in urine (percentage of ingested amount)” value in data set [1] was ~12.3%.
As for `CC(=O)[O-].[Na+]` [sodium acetate], in the data set on microglia, the “metabolic function (metabolic/mitochondrial activity) of microglia” value is given as “no effect” and the “intracellular ROS production / oxidative stress in microglia” value was “no effect”.
On to `CCC(=O)[O-].[Na+]` [sodium propionate], for which, in the data set with microglia, the “metabolic function (metabolic/mitochondrial activity) of microglia” value is on record as “no effect” and the “intracellular ROS production / oxidative stress in microglia” value was “no effect”.

B1: IAP: intestinal alkaline phosphatase, an endogenous enhancer of the gut barrier function (exemplary CAS No. 9001-78-9 (calf)) (protein, UniProt P19111 20-506, looked up)
Intestinal-type alkaline …: LVPVEEEDPAFWNRQAAQALDVAKKLQPIQTAAKNVILFLGDGMGVPTVTATRILKGQMNGKLGPETPLAMDQFPYVALSKTYNVDRQVPDSAGTATAYLCGVKGNYRTIGVSAAARYNQCKTTRGNEVTSVMNRAKKAGKSVGVVTTTRVQHASPAGAYAHTVNRNWYSDADLPADAQMNGCQDIAAQLVNNMDIDVILGGGRKYMFPVGTPDPEYPDDASVNGVRKRKQNLVQAWQAKHQGAQYVWNRTALLQAADDSSVTHLMGLFEPADMKYNVQQDHTKDPTLQEMTEVALRVVSRNPRGFYLFVEGGRIDHGHHDDKAYMALTEAGMFDNAIAKANELTSELDTLILVTADHSHVFSFGGYTLRGTSIFGLAPSKALDSKSYTSILYGNGPGYALGGGSRPDVNDSTSEDPSYQQQAAVPQASETHGGEDVAVFARGPQAHLVHGVEEETFVAHIMAFAGCVEPYTDCNLPAPTTATSIPD
Regarding B1, in the data set with gut barrier / microglia, the “ATP levels in microglia” value is recorded as “increased ATP levels”, the “cellular ROS in microglia (CellROX)” value is “significant reduction”, the “CML accumulation in the brain (LC-MS)” value is on record as “reduced” and the “gut permeability (FITC-dextran 4 kDa translocation to the circulation)” value is listed as “lower gut leakiness”.
